Values after ≈ are worked out from the molar mass of the structure shown.

Series [1] can be described thus: Primate study, 3-way crossover, oral administration. Type of series: in vivo. The conditions noted are these: monkeys, oral 20 mg/kg, three dosing occasions. The protocol:
A total of 6 animals were used in a 3-way (2+2+2) crossover design where, on each of the three dosing occasions, 2 of the animals were administered Compound I in powder in bottle (PiB) suspension in vehicle for reconstitution (20 mg/kg), 2 of the animals were administered Compound I solid dispersion suspension (20 mg/kg) of Example 1, while another 2 animals were administered Compound I in a tablet form (20 mg/kg) of Example 2. The vehicle for reconstitution comprised Propylene Glycol USP 80.0% w/w; Ethanol USP 10.0% w/w; Vit E TPGS USP 10.0% w/w for a total of 100.0% w/w.
Dosing for this study was conducted in fasted state. […]
The animals were observed closely during the first 12 hrs after each dosing and once daily on non-dosing days. Body weights were measured and recorded prior to dosing and blood samples for pharmacokinetic profiling were taken at the pre-defined time points for all animals. […] All plasma samples from this study were analyzed by this method and plasma concentration of Compound I were expressed in terms of ng/mL.
The error bars refer to standard deviation. […] AUClast refers to the area under the concentration-time curve from dosing (time 0) to the time of the last measured concentration (24 hours).

The nature of series [2]: ultracentrifuge free-drug test (drug speciation). The format is physicochemical.
Method: The ultracentrifuge free-drug analysis is used to determine the species of dissolved drug that are present for each formulation. This test is performed at several timepoints, i.e., 0, 30, 60 and 90 minutes, during the microcentrifuge test, and it consists of a centrifugation step at 300,000 g that removes any colloidal species that are present, leaving only the free drug and drug in micelle species. In combination with the microcentrifuge data, this allows for determination of free drug and colloidal content at the timepoint where both are tested.
Series [3] in a line: gastric to intestinal (G-IB) transfer microcentrifuge dissolution test. The format is physicochemical. The protocol:
The solid dispersions described in Example 1 were evaluated in two non-sink dissolution tests to evaluate various aspects of the formulations and how they might be differentiated. The two dissolution tests that were evaluated include a gastric to intestinal (G-IB) transfer microcentrifuge dissolution test and an ultracentrifuge free-drug test.
The gastric-to-intestinal buffer (G-IB) transfer dissolution test is used to measure the supersaturation of drug above the solubility of bulk drug when dosed as a powder, first into media at a lower pH value to imitate a fasted stomach. After 30 minutes of exposure to the gastric media, the samples are transferred into the higher pH media as an imitation of the intestine. The drug concentrations measured in this test are a composite of free drug, drug in micelles, and drug suspended in solution as drug/polymer colloids.
The G-IB dissolution test is performed the same way, but with a 30 minute gastric exposure prior to transferring into the intestinal media. The intestinal media for the G-IB dissolution test is doubly concentrated in terms of buffering and bile salts, so that after the gastric transfer step, the final pH is 6.5 and SIF concentration is 0.5 wt %.
The microcentrifuge dissolution test separates the precipitate (undissolved drug) and total solubilized drug. Total solubilized drug consists of three solubilized species: freely solubilized drug, drug associated with bile salt micelles, and drug associated with polymer (drug-polymer colloids). These three species have different activities in vivo and differentiate formulations. The freely solubilized drug is the smallest species and is the most readily available for absorption. Freely solubilized drug can cross the unstirred mucous boundary layer and be absorbed into the blood through the epithelium. The drug associated with micelles diffuse across the unstirred mucous boundary layer and resupply free drug as it is absorbed. Finally, the drug-polymer colloids also resupply free drug as it is absorbed and can have a contribution to effective diffusion rate. These colloids can be important depending on the rate-limiting step for absorption.
A solid dispersion comprising Compound I: HPMCAS in a ratio of 1:2 (“33.3% HPMCAS”) was prepared from 2.7 grams of the free base hydrate crystalline form B of Compound I and 5.3 grams of HPMCAS (Shin Etsu, L grade, F particle size (≤10 microns particle size)), using a similar procedure of Example 1. Briefly, 2 mg test compound/mL in 0.9 mL gastric buffer was transferred to a final dose of 1 mg/mL in 1.8 mL of 0.5% SIF in PBS at pH 6.5 at room temperature to provide 1.8 mL total volume test solution. The samples were centrifuged at 15,800 g for 1 minute. At specified timepoint, 50 μL aliquot samples were diluted 6× with 50/50 acetonitrile/water and assayed by HPLC.
The solid dispersion was evaluated together with the 25% Compound I: HPMCAS solid dispersion (“25% HPMCAS”) and 95.3% Compound I (freebase hydrate, “Crystalline API”), using the G-IB dissolution test described in Example 3-1.

Where [4] appears, read: intestinal buffer, 0.5% SIF in PBS pH 6.5, 1 mg/mL.

With `COc1cc(F)cc([C@@H](CO)NC(=O)[C@@H](C)N2Cc3ccc(-c4nc(NC5CCOCC5)ncc4Cl)cc3C2=O)c1` [Compound I, (2R)-2-(6-{5-chloro-2-[(tetrahydro-2H-pyran-4-yl)amino]pyrimidin-4-yl}-1-oxo-2,3-dihydro-1H-isoindol-2-yl)-N-[(S)-1-(3-fluoro-5-methoxyphenyl)-2-hydroxyethyl]propanamide], the “clinical signs as a result of treatment” value in series [1] is given as “no clinical signs”.

With `COc1cc(F)cc([C@@H](CO)NC(=O)[C@@H](C)N2Cc3ccc(-c4nc(NC5CCOCC5)ncc4Cl)cc3C2=O)c1` [amorphous Compound I], the solubility (usually the dissolved amount per volume that the medium holds) in series [2] (pH 6.5, fassgf or other biorelevant, FIG. 2 speciation data from the dissolution test) is around 15 µg/mL (≈ 25.7 µM).

As for `COc1cc(F)cc([C@@H](CO)NC(=O)[C@@H](C)N2Cc3ccc(-c4nc(NC5CCOCC5)ncc4Cl)cc3C2=O)c1` [Crystalline API], the CmaxGB in series [3] (gastric buffer, 2 mg/mL, room temperature) was 20000 ng/mL. In addition, the C1200 in series [3] (intestinal buffer, 0.5% SIF in PBS pH 6.5) is 21 µg/mL. In series [3] (setting [4]), the “AUC4-90 IB” value was 1,610 min*μg/mL, the “C90 IB” value was 21 µg/mL and the “Cmax90 IB” value stood at 21000 ng/mL. The Ultra1200 in series [2] (ultracentrifuge) was found to be 19 µg/mL. For the same molecule, the Ultra90 in series [2] (ultracentrifuge, 90 minutes) amounted to 21 µg/mL.

The values above are taken from patent publication US20240415835A1, “COMPOSITIONS COMPRISING AN ERK INHIBITOR” (Otsuka Pharmaceutical Co., Ltd., priority 2021, published 2024).
